Active and inactive are the calls of the source. The calls are words filed in the database; no cut-off is given here.
Experiments:
Rattus norvegicus [1] = test: Narcotic analgesic activity in fasted Sprague-Dawley rat at 240 mg/kg, po measured at 15 mins by D'Amour-Smith tail-flick test relative to control; format: functional
Rattus norvegicus [2] = test: Hypoglycemic activity in fasted Sprague-Dawley rat assessed as reduction of blood glucose level at 100 mg/kg, po relative to control; format: functional; set-up: scale not given: the % may be the effect or the level left
Mus musculus [3] = test: Analgesic activity in Swiss-Webster mouse assessed as reduction of acetylcholine-induced writhing at 75 mg/kg, sc relative to control; format: functional; set-up: scale not given: the % may be the effect or the level left; conditions: route subcutaneous
Rattus norvegicus [4] = test: Toxicity in Sprague-Dawley rat assessed as convulsion at 240 mg/kg, po; format: organism-based; set-up: dose 240 mg/kg, route oral; conditions: in vivo
Rattus norvegicus [5] = test: Narcotic antagonist activity in fed Sprague-Dawley rat assessed as decrease in phenazocine-induced analgesic activity at 80 mg/kg, sc; format: functional; set-up: scale not given: the % may be the effect or the level left; conditions: route subcutaneous
Rattus norvegicus [6] = test: Toxicity in fasted Sprague-Dawley rat assessed as mortality at 240 mg/kg, po measured at 60 mins; format: organism-based; set-up: dose 240 mg/kg, route oral; conditions: in vivo, 1 h
Mus musculus [7] = test: Analgesic activity in sc dosed Swiss-Webster mouse assessed as reduction of acetylcholine-induced writhing; format: functional
Rattus norvegicus [8] = test: Analgesic activity in po dosed rat assessed as reduction of intraarterial bradykinin-induced pain response; format: functional
Rattus norvegicus [9] = test: Narcotic analgesic activity in sc dosed fed Sprague-Dawley rat measured at 30 mins by D'Amour-Smith tail-flick test; format: functional; conditions: Rattus norvegicus, Sprague-Dawley, Tail, sc, 0.5 h; read-out: ED50
Rattus norvegicus [10] = test: Narcotic analgesic activity in po dosed fasted Sprague-Dawley rat measured at 60 mins by D'Amour-Smith tail-flick test; format: functional
Rattus norvegicus [11] = test: Toxicity in Sprague-Dawley rat assessed as tremor at >= 120 mg/kg, po; format: organism-based; set-up: dose 120 mg/kg, route oral; conditions: in vivo
Rattus norvegicus [12] = test: Potency index, ratio of codeine ED50 to compound ED50 for analgesic activity in po dosed rat assessed as reduction of intraarterial bradykinin-induced pain response; format: functional
Rattus norvegicus [13] = test: Toxicity in Sprague-Dawley rat assessed as rigidity at >=120 mg/kg, po; format: organism-based; conditions: in vivo
Rattus norvegicus [14] = test: Hypoglycemic activity in Sprague-Dawley rat assessed as reduction of blood glucose level at 88 mg/kg, po by glucagon-impaired glucose disposal test relative to control; format: functional; set-up: scale not given: the % may be the effect or the level left
Rattus norvegicus [15] = test: Toxicity in Sprague-Dawley rat assessed as mortality at >= 120 mg/kg, po; format: organism-based; set-up: dose 120 mg/kg, route oral; conditions: in vivo
Rattus norvegicus [16] = test: Toxicity in Sprague-Dawley rat assessed as hyperexcitability at >= 120 mg/kg, po; format: organism-based; set-up: dose 120 mg/kg, route oral; conditions: in vivo
Mus musculus [17] = test: Analgesic activity in Swiss-Webster mouse assessed as reduction of acetylcholine-induced writhing at 25 mg/kg, sc relative to control; format: functional; set-up: scale not given: the % may be the effect or the level left; conditions: route subcutaneous
Rattus norvegicus [18] = test: Narcotic analgesic activity in fed Sprague-Dawley rat at 120 mg/kg, sc measured at 30 mins by D'Amour-Smith tail-flick test; format: functional; conditions: route subcutaneous
Rattus norvegicus [19] = test: Analgesic activity in rat assessed as protection against intraarterial bradykinin-induced pain response at 100 mg/kg, sc; format: functional, organism-based; set-up: dose 100 mg/kg
Rattus norvegicus [20] = test: Narcotic analgesic activity in fasted Sprague-Dawley rat at 240 mg/kg, po measured at 60 mins by D'Amour-Smith tail-flick test relative to control; format: functional
Rattus norvegicus [21] = test: Toxicity in Sprague-Dawley rat assessed as tremor at 240 mg/kg, po; format: organism-based; set-up: dose 240 mg/kg, route oral; conditions: in vivo
Rattus norvegicus [22] = test: Hypoglycemic activity in glucose loaded Sprague-Dawley rat assessed as reduction of blood glucose level at 64 mg/kg, po relative to control; format: functional; set-up: scale not given: the % may be the effect or the level left
Mus musculus [23] = test: Analgesic activity in Swiss-Webster mouse assessed as reduction of acetylcholine-induced writhing at 50 mg/kg, po relative to control; format: functional; set-up: scale not given: the % may be the effect or the level left
Rattus norvegicus [24] = test: Toxicity in Sprague-Dawley rat assessed as rigidity at 240 mg/kg, po; format: organism-based; set-up: dose 240 mg/kg, route oral; conditions: in vivo
Rattus norvegicus [25] = test: Hypoglycemic activity in Sprague-Dawley rat assessed as reduction of blood glucose level at 100 mg/kg, po by glucagon-impaired glucose disposal test relative to control; format: functional; set-up: scale not given: the % may be the effect or the level left
Rattus norvegicus [26] = test: Hypoglycemic activity in glucose loaded Sprague-Dawley rat assessed as reduction of blood glucose level at 100 mg/kg, po relative to control; format: functional; set-up: scale not given: the % may be the effect or the level left
Rattus norvegicus [27] = test: Hypoglycemic activity in glucose loaded Sprague-Dawley rat assessed as reduction of blood glucose level at 89 mg/kg, po relative to control; format: functional; set-up: scale not given: the % may be the effect or the level left
Mus musculus [28] = test: Toxicity in Swiss-Webster mouse assessed as sedation at 40 mg/kg, sc; format: organism-based; set-up: dose 40 mg/kg, route subcutaneous; conditions: in vivo
Rattus norvegicus [29] = test: Toxicity in Sprague-Dawley rat assessed as tremor at 120 mg/kg, sc; format: organism-based; set-up: dose 120 mg/kg, route subcutaneous; conditions: in vivo
Rattus norvegicus [30] = test: Hypoglycemic activity in Sprague-Dawley rat assessed as reduction of blood glucose level at 87 mg/kg, po by glucagon-impaired glucose disposal test relative to control; format: functional; set-up: scale not given: the % may be the effect or the level left
[31] = Drug level in glucose loaded Sprague-Dawley rat urine treated with methyl (exo,exo)-8-(l-pentyl)-2-(2-thienyl)-8-azabicyclo[3.2.1]octane-3-carboxylate at 20 mg, po administered 3 to 6 hrs measured for 24 hrs by TLC/mass spectrographic analysis; format: ADME, organism-based; conditions: in vivo
Rattus norvegicus [32] = test: Hypoglycemic activity in Sprague-Dawley rat assessed as reduction of blood glucose level at 87 mg/kg, po by glucagon-impaired glucose disposal test in presence of microsomal enzyme inhibitor SKF 525-A; format: functional, organism-based; set-up: dose 87 mg/kg
[33] = Drug level in glucose loaded Sprague-Dawley rat urine treated with (RS-exo,exo)-8-methyl-2-(2-thienyl)-8-azabicyclo[3.2.1]octane-3-carboxylate at 20 mg, po administered 3 to 6 hrs measured for 24 hrs by TLC/mass spectrographic analysis; format: ADME, organism-based; conditions: in vivo
Mus musculus [34] = test: Toxicity in Swiss-Webster mouse assessed as stimulation of straub tail at 150 mg/kg, po after 15 to 25 mins; format: organism-based; set-up: dose 150 mg/kg, route oral; conditions: in vivo
[35] = Mus musculus, Swiss-Webster, sc, read-out: ED50

CCOC(CN1[C@@H]2CC[C@@H]1[C@@H](c1cccs1)[C@@H](C(=O)OC)C2)OCC
Activity (Rattus norvegicus [1]): 87%
Activity (Rattus norvegicus [2]): 47%
Activity (Mus musculus [3]): 27%

COC(=O)[C@H]1C[C@H]2CC[C@H]([C@H]1c1ccccc1)N2C (stereo in doubt; (-)-5)
Activity (Rattus norvegicus [4]): Toxic
Activity (Rattus norvegicus [5]): 73%
Activity (Rattus norvegicus [6]): Toxic
ED50 (Mus musculus [7]; [35]): 18 mg/kg

COC(=O)[C@H]1C[C@H]2CC[C@H]([C@H]1c1cccs1)N2C.Cl
ED50 (Rattus norvegicus [8]): 6.9 mg/kg
ED50 (Rattus norvegicus [9]): 60 mg/kg
ED50 (Rattus norvegicus [10]): 59 mg/kg
Activity (Rattus norvegicus [11]): Toxic
Ratio ED50 (Rattus norvegicus [12]): >10
Activity (Rattus norvegicus [13]): Toxic
Activity (Rattus norvegicus [14]; 88 mg/kg): 75%
Activity (Rattus norvegicus [15]): Toxic
Activity (Rattus norvegicus [16]): Toxic

CCCCN1[C@@H]2CC[C@@H]1[C@@H](c1cccs1)[C@@H](C(=O)OC)C2
Activity (Rattus norvegicus [1]): 88%
Activity (Mus musculus [17]): 20%
Activity (Rattus norvegicus [2]): 34%

COC(=O)[C@H]1C[C@H]2CC[C@H]([C@H]1c1cccc(O)c1)N2C.Cl
Activity (Rattus norvegicus [14]): <20%
Activity (Rattus norvegicus [18]): <20%
Activity (Rattus norvegicus [19]): inactive
ED50 (Mus musculus [7]; [35]): 24 mg/kg

COC(=O)[C@H]1C[C@H]2CC[C@H]([C@H]1c1cccs1)N2CCc1ccccc1
Activity (Rattus norvegicus [1]): 96%
Activity (Rattus norvegicus [2]): 29%
Activity (Mus musculus [3]): 27%

COC(=O)[C@H]1C[C@H]2CC[C@H]([C@H]1c1ccccc1)N2C (stereo in doubt; (+)-5)
Activity (Rattus norvegicus [20]): 59%
Activity (Rattus norvegicus [21]): Toxic
ED50 (Mus musculus [7]): 11 mg/kg

COC(=O)[C@H]1C[C@H]2CC[C@H]([C@H]1c1cccs1)N2CCCO.Cc1ccc(S(=O)(=O)O)cc1
Activity (Rattus norvegicus [22]): 27%
Activity (Mus musculus [23]): 33%
Activity (Rattus norvegicus [21]): Toxic
Activity (Rattus norvegicus [4]): Toxic
Activity (Rattus norvegicus [1]): 92%
Activity (Rattus norvegicus [24]): Toxic

CCCOC(=O)[C@H]1C[C@H]2CC[C@H]([C@H]1c1cccs1)N2C
Activity (Rattus norvegicus [20]): <20%
Activity (Mus musculus [17]): 27%
Activity (Rattus norvegicus [25]): <20%

CCCCCN1[C@@H]2CC[C@@H]1[C@@H](c1cccs1)[C@@H](C(=O)OCC)C2
Activity (Rattus norvegicus [20]): 65%
Activity (Rattus norvegicus [26]): 61%
Activity (Mus musculus [3]): 13%

COC(=O)[C@H]1C[C@H]2CC[C@H]([C@H]1c1cccs1)N2CC(N)=O.Cl
Activity (Rattus norvegicus [1]): 72%
Activity (Mus musculus [17]): 13%
Activity (Rattus norvegicus [24]): Toxic
Activity (Rattus norvegicus [27]): 66%

COC(=O)[C@H]1C[C@H]2CC[C@H]([C@H]1c1ccccc1)N2C.Cl (racemic)
Activity (Mus musculus [28]): Toxic
Activity (Rattus norvegicus [14]): 24%
Activity (Rattus norvegicus [18]): <20%
ED50 (Mus musculus [7]; [35]): 12 mg/kg
Activity (Rattus norvegicus [29]): Toxic

COC(=O)[C@H]1C[C@H]2CC[C@@H](N2)[C@H]1c1cccs1.Cl
Activity (Rattus norvegicus [30]): 43%
Drug metabolism [31]: metabolite_detected
ED50 (Rattus norvegicus [10]; Rattus norvegicus, Sprague-Dawley, Tail, po, 1 h, read-out: ED50): 43 mg/kg
Activity (Rattus norvegicus [32]): Active
Drug metabolism [33]: metabolite_detected
Activity (Mus musculus [34]): Toxic
ED50 (Mus musculus [7]; [35]): 3.3 mg/kg

COC(=O)[C@H]1C[C@H]2CC[C@H]([C@H]1c1cccs1)N2CC1CCCO1 (some centres undefined)
Activity (Rattus norvegicus [1]): 72%
Activity (Rattus norvegicus [2]): 39%

From ChEMBL document CHEMBL3272053, “(exo, exo)-2-Aryltropane-3-carboxylic esters, hypoglycemic agents with accompanying analgesic activity” (J Med Chem, 1978)
